Test results published in patent US7192948B2, “Bicyclic heterocycles as HIV integrase inhibitors” (priority 2004, dated 2007).

Columns and labels:
HIV-integrase = target: T1, HIV-integrase (Human immunodeficiency virus type 1 group M subtype B, UniProt P12497); test: HIV-Integrase Inhibition Activity (SPA bead strand transfer assay); type: biochemical; conditions: recombinant integrase, in vitro
T1 construct: Recombinant integrase (0.26 ng) was incubated with the beads
Experimental: HIV-Integrase Inhibition Activity. To evaluate in-vitro activity against HIV-integrase, 5 pmole of biotin labeled substrate DNA was bound to 100 μg of Streptavidin coated PVT SPA beads (Amersham Pharmacia Biotech). Recombinant integrase (0.26 ng) was incubated with the beads for 90 min at 37° C. Unbound enzyme was removed by washing the complex followed by addition of inhibitors and 0.1 fmol of P33 labeled target DNA. The reaction was stopped by adding EDTA to a final concentration of […]. Samples were counted in TopCountNXT (Packard) and the CPM was used as a measure of integration. The reaction condition was as described in A. Engelman and R. Craigie, J. Virol. 69, 5908–5911 (1995). The sequences of substrate and target DNA were described in Nucleic Acid Research 22, 1121–1122 (1994).

Row | SMILES | IC50 (HIV-integrase) [nM] | melting point
1 | O=C1CCn2c(nc(C(=O)NCc3ccc(Cl)c(Cl)c3)c(O)c2=O)N1 [Example 7, 3-Hydroxy-4,8-dioxo-6,7,8,9-tetrahydro-4H-pyrimido[1,2-a]pyrimidine-2-carboxylic acid 3,4-dichloro-benzylamide] | 4 to 15 | > 300 °C (dec.)
2 | O=C1CCn2c(nc(C(=O)NCc3ccc(F)cc3)c(O)c2=O)N1 [Example 6, 3-Hydroxy-4,8-dioxo-6,7,8,9-tetrahydro-4H-pyrimido[1,2-a]pyrimidine-2-carboxylic acid 4-fluoro-benzylamide] | 16 to 49000 | > 300 °C (dec.)
3 | CN1C(=O)CCn2c1nc(C(=O)NCc1ccc(F)c(Cl)c1)c(O)c2=O [Example 21, N-(3-Chloro-4-fluorobenzyl)-3-hydroxy-9-methyl-4,8-dioxo-6,7,8,9-tetrahydro-4H-pyrimido[1,2-a]pyrimidine-2-carboxamide] | 4 to 15 | 201 °C
4 | Cc1cc(CNC(=O)c2nc3n(c(=O)c2O)CCC(=O)N3)ccc1F [Example 8, 3-Hydroxy-4,8-dioxo-6,7,8,9-tetrahydro-4H-pyrimido[1,2-a]pyrimidine-2-carboxylic acid 4-fluoro-3-methyl-benzylamide] | 4 to 15 | > 300 °C
5 | O=C1Cn2c(nc(C(=O)NCc3ccc(F)c(Cl)c3)c(O)c2=O)N1 [Example 4, 6-Hydroxy-2,5-dioxo-1,2,3,5-tetrahydro-imidazo[1,2-a]pyrimidine-7-carboxylic acid 3-chloro-4-fluoro-benzylamide] | 16 to 49000 | 295 °C (dec.)
6 | Cc1ccc(CNC(=O)c2nc3n(c(=O)c2O)CCC(=O)N3C)cc1C [Example 22, N-(3,4-Dimethylbenzyl)-3-hydroxy-9-methyl-4,8-dioxo-6,7,8,9-tetrahydro-4H-pyrimido[1,2-a]pyrimidine-2-carboxamide] | 16 to 49000 | 181 °C
7 | Cc1cc(CNC(=O)c2nc3n(c(=O)c2O)CC(=O)N3)ccc1F [Example 3, 6-Hydroxy-2,5-dioxo-1,2,3,5-tetrahydro-imidazo[1,2-a]pyrimidine-7-carboxylic acid 4-fluoro-3-methyl-benzylamide] | 16 to 49000 | 287 °C (dec.)
8 | O=C1Cn2c(nc(C(=O)NCc3ccc(Cl)c(Cl)c3)c(O)c2=O)N1 [Example 2, 6-Hydroxy-2,5-dioxo-1,2,3,5-tetrahydro-imidazo[1,2-a]pyrimidine-7-carboxylic acid 3,4-dichloro-benzylamide] | 4 to 15 | 280 °C (dec.)
9 | Cc1cc(CNC(=O)c2nc3n(c(=O)c2O)CCC(=O)N3C)ccc1F [Example 20, N-(4-Fluoro-3-methylbenzyl)-3-hydroxy-9-methyl-4,8-dioxo-6,7,8,9-tetrahydro-4H-pyrimido[1,2-a]pyrimidine-2-carboxamide] | 4 to 15 | 216 °C
10 | CNC(=O)c1cc(F)ccc1CNC(=O)c1nc2n(c(=O)c1O)CCC(=O)N2C [Example 23, N-(4-Fluoro-2-(methylcarbamoyl)benzyl)-3-hydroxy-9-methyl-4,8-dioxo-6,7,8,9-tetrahydro-4H-pyrimido[1,2-a]pyrimidine-2-carboxamide] | 4 to 15 | –
11 | CN1C(=O)Cn2c1nc(C(=O)NCc1ccc(Cl)c(Cl)c1)c(O)c2=O [Example 10, N-(3,4-Dichlorobenzyl)-6-hydroxy-1-methyl-2,5-dioxo-1,2,3,5-tetrahydroimidazo[1,2-a]pyrimidine-7-carboxamide] | 4 to 15 | –
12 | Cc1ccc(CNC(=O)c2nc3n(c(=O)c2O)CC(=O)N3)cc1C [Example 5, 6-Hydroxy-2,5-dioxo-1,2,3,5-tetrahydro-imidazo[1,2-a]pyrimidine-7-carboxylic acid 3,4-dimethyl-benzylamide] | 16 to 49000 | 287 °C (dec.)
13 | CN1C(=O)Cn2c(nc(C(=O)NCc3ccc(Cl)c(Cl)c3)c(O)c2=O)N1C [Example 26, N-(3,4-Dichlorobenzyl)-1,2-dimethyl-7-hydroxy-3,6-dioxo-2,3,4,6-tetrahydro-1H-pyrimido[2,1-c][1,2,4]triazine-8-carboxamide] | 16 to 49000 | –
14 | CN1C(=O)CCn2c1nc(C(=O)NCc1ccc(Cl)c(Cl)c1)c(O)c2=O [Example 19, N-(3,4-Dichlorobenzyl)-3-hydroxy-9-methyl-4,8-dioxo-6,7,8,9-tetrahydro-4H-pyrimido[1,2-a]pyrimidine-2-carboxamide] | 4 to 15 | 198 to 201 °C
15 | CNC(=O)c1cc(F)ccc1CNC(=O)c1nc2n(c(=O)c1O)CCS2 [Example 40, N-(4-Fluoro-2-(methylcarbamoyl)benzyl)-6-hydroxy-5-oxo-3,5-dihydro-2H-thiazolo[3,2-a]pyrimidine-7-carboxamide] | 16 to 49000 | –
16 | CN1C(=O)Cn2c(nc(C(=O)NCc3ccc(F)cc3)c(O)c2=O)N1C [Example 25, N-(4-Fluorobenzyl)-1,2-dimethyl-7-hydroxy-3,6-dioxo-2,3,4,6-tetrahydro-1H-pyrimido[2,1-c][1,2,4]triazine-8-carboxamide] | 16 to 49000 | –
17 | Cc1cc(CNC(=O)c2nc3n(c(=O)c2O)CC(=O)N(C)N3C)ccc1F [Example 27, N-(4-Fluoro-3-methylbenzyl)-1,2-dimethyl-7-hydroxy-3,6-dioxo-2,3,4,6-tetrahydro-1H-pyrimido[2,1-c][1,2,4]triazine-8-carboxamide] | 16 to 49000 | –
18 | Cc1ccc(CNC(=O)c2nc3n(c(=O)c2O)CC(=O)N3C)cc1C [Example 13, N-(3,4-Dimethylbenzyl)-6-hydroxy-1-methyl-2,5-dioxo-1,2,3,5-tetrahydroimidazo[1,2-a]pyrimidine-7-carboxamide] | 16 to 49000 | –
19 | Cc1cc(CNC(=O)c2nc3n(c(=O)c2O)CC(=O)N2CCCN32)ccc1F [Example 35, 7-Hydroxy-4,6-dioxo-2,3,4,5-tetrahydro-1H,6H-3a,5a,9,9b-tetraaza-benz[e]indene-8-carboxylic acid 4-fluoro-3-methyl-benzylamide] | 4 to 15 | –
20 | CN1C(=O)CCn2c1nc(C(=O)NCc1ccc(F)cc1)c(O)c2=O [Example 18, N-(4-Fluorobenzyl)-3-hydroxy-9-methyl-4,8-dioxo-6,7,8,9-tetrahydro-4H-pyrimido[1,2-a]pyrimidine-2-carboxamide] | 16 to 49000 | 176 to 178 °C
